Results as given in ChEMBL document CHEMBL4043247, “Design, synthesis and biological evaluation of 8-substituted-6-hydrazonoindolo[2,1-b]quinazolin-12(6H)-one scaffolds as potential cytotoxic agents: IDO-1 targeting molecular docking studies” (Bioorg Med Chem Lett, 2017).

Legend:
[1] = system: MCF7; assay: Cytotoxicity against human MCF7 cells after 6 days by MTT assay; format: functional, cell-based; conditions: MCF7, 144 h
[2] = system: A549; assay: Cytotoxicity against human A549 cells after 6 days by MTT assay; format: functional, cell-based; conditions: A549, 144 h
[3] = system: HeLa; assay: Cytotoxicity against human HeLa cells after 6 days by MTT assay; format: functional, cell-based; conditions: 144 h
[4] = Antioxidant activity assessed as DPPH radical scavenging activity incubated for 30 mins under dark condition by UV-vis spectrophotometric method; format: functional
[5] = system: HEK293; assay: Cytotoxicity against HEK293 cells after 6 days by MTT assay; format: cell-based; conditions: Homo sapiens, HEK293, 144 h

Row | SMILES | IC50 [1] | IC50 [2] | IC50 [3] | IC50 [4] | IC50 [5]
1 | CC(/C=C(\O)c1ccccc1)=N\N=C1\c2cc(F)ccc2-n2c1nc1ccccc1c2=O | 20.4 µM | 32 µM | 24.5 µM | 20.1 µM | –
2 | COc1cccc(/C=N/N=C2/c3cc([N+](=O)[O-])ccc3-n3c2nc2ccccc2c3=O)c1O | 34.2 µM | 40.1 µM | 38 µM | 28.7 µM | –
3 | COc1cccc(/C=N/N=C2/c3cc(I)ccc3-n3c2nc2ccccc2c3=O)c1O | 30.4 µM | 32.3 µM | 29.2 µM | 10.9 µM | –
4 | N/N=C1/c2cc(-c3ccncc3)ccc2-n2c1nc1ccccc1c2=O | 50.4 µM | 47.8 µM | 44.1 µM | 11.2 µM | –
5 | CC(/C=C(\O)c1ccccc1)=N\N=C1\c2cc(I)ccc2-n2c1nc1ccccc1c2=O | 19.9 µM | 20.4 µM | 18.8 µM | 11.6 µM | 82.5 µM
6 | CC(/C=C(\O)c1ccccc1)=N\N=C1\c2cc(-c3ccc(C(=O)O)cc3)ccc2-n2c1nc1ccccc1c2=O | 9.42 µM | 7.19 µM | 9.42 µM | 5.02 µM | 64.1 µM
7 | N/N=C1/c2cc(-c3ccc(C(=O)O)cc3)ccc2-n2c1nc1ccccc1c2=O | 61.1 µM | 62.2 µM | 54.3 µM | 22 µM | –
8 | CC(/C=C(\O)c1ccccc1)=N\N=C1\c2cc(-c3ccncc3)ccc2-n2c1nc1ccccc1c2=O | 11.6 µM | 6.01 µM | 12.2 µM | 6.23 µM | 76.1 µM
9 | COc1cccc(/C=N/N=C2/c3cc(Cl)ccc3-n3c2nc2ccccc2c3=O)c1O | 35.4 µM | 40.8 µM | 36.6 µM | 22.2 µM | –
10 | COc1cccc(/C=N/N=C2/c3cc(-c4ccncc4)ccc3-n3c2nc2ccccc2c3=O)c1O | 24.8 µM | 32.9 µM | 24.8 µM | 4.98 µM | –
11 | COc1cccc(/C=N/N=C2/c3cc(-c4ccc(C(=O)O)cc4)ccc3-n3c2nc2ccccc2c3=O)c1O | 37.1 µM | 39.2 µM | 32.3 µM | 5.31 µM | –
12 | N/N=C1/c2cc(F)ccc2-n2c1nc1ccccc1c2=O | 54.6 µM | 44.6 µM | 67.7 µM | 16.4 µM | –
13 | N/N=C1/c2cc(I)ccc2-n2c1nc1ccccc1c2=O | 44.9 µM | 43.4 µM | 51.1 µM | 24.9 µM | –
14 | CC(/C=C(\O)c1ccccc1)=N\N=C1\c2cc(Cl)ccc2-n2c1nc1ccccc1c2=O | 19.7 µM | 18.1 µM | 23.6 µM | 12.5 µM | 71 µM
15 | N/N=C1/c2cc(Cl)ccc2-n2c1nc1ccccc1c2=O | 67.5 µM | 62.1 µM | 55.7 µM | 19.9 µM | –
16 | N/N=C1/c2cc([N+](=O)[O-])ccc2-n2c1nc1ccccc1c2=O | 53.6 µM | 45.6 µM | 50.3 µM | 27.3 µM | –
17 | CC(/C=C(\O)c1ccccc1)=N\N=C1\c2cc([N+](=O)[O-])ccc2-n2c1nc1ccccc1c2=O | 31.5 µM | 28.4 µM | 33.1 µM | 29.7 µM | –
18 | COc1cccc(/C=N/N=C2/c3cc(F)ccc3-n3c2nc2ccccc2c3=O)c1O | 35.5 µM | 31.2 µM | 34.3 µM | 21.1 µM | –
19 | O=C1O[C@H]([C@@H](O)CO)C(O)=C1O [ASCORBIC ACID] | – | – | – | 3.48 µM | –
